We go through 26 compounds from ChEMBL document CHEMBL5214954, “Identification of PI3K/HDAC Dual-targeted inhibitors with subtype selectivity as potential therapeutic agents against solid Tumors: Building HDAC6 potency in a Quinazolinone-based PI3Kδ-selective template” (Bioorg Med Chem, 2022).

The target in data set [1] is T1, Protein deacetylase HDAC6 (Homo sapiens, UniProt Q9UBN7).
T1 sequence (Q9UBN7 whole entry): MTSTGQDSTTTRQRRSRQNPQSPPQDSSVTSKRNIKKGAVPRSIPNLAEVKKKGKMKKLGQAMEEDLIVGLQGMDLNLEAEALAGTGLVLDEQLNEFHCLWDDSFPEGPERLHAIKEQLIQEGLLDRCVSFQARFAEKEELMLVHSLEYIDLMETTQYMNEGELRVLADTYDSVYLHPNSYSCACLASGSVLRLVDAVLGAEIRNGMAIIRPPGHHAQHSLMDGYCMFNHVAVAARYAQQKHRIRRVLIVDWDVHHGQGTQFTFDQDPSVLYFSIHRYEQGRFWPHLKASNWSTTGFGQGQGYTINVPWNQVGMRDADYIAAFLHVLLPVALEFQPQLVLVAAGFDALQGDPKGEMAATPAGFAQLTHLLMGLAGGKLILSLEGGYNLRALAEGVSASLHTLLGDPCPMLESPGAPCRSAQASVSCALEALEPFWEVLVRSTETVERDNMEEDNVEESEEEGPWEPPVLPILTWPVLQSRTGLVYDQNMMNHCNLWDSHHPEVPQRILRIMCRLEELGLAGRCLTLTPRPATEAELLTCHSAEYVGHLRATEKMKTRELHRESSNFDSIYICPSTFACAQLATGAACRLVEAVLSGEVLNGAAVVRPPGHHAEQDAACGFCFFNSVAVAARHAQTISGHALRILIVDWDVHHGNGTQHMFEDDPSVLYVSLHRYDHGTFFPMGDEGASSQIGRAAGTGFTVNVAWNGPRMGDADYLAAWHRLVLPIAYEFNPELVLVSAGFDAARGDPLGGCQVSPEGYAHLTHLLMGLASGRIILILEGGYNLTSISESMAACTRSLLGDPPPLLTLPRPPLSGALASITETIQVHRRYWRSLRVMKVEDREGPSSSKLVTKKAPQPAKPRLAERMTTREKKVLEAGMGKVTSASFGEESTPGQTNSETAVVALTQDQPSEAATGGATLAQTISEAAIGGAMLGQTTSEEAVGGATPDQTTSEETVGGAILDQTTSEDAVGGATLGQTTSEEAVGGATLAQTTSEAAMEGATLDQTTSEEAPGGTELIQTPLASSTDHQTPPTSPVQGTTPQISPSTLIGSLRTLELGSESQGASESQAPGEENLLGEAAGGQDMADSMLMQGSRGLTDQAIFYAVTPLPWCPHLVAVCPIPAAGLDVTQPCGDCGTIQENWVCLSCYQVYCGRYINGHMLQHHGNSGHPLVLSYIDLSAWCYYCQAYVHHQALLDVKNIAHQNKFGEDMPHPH
Description: Inhibition of HDAC6 (unknown origin) measured by fluorescence based assay

Data set [2] deals with T2, Phosphatidylinositol 4,5-bisphosphate 3-kinase catalytic subunit delta isoform (Homo sapiens, UniProt O00329).
T2 sequence (O00329 whole entry): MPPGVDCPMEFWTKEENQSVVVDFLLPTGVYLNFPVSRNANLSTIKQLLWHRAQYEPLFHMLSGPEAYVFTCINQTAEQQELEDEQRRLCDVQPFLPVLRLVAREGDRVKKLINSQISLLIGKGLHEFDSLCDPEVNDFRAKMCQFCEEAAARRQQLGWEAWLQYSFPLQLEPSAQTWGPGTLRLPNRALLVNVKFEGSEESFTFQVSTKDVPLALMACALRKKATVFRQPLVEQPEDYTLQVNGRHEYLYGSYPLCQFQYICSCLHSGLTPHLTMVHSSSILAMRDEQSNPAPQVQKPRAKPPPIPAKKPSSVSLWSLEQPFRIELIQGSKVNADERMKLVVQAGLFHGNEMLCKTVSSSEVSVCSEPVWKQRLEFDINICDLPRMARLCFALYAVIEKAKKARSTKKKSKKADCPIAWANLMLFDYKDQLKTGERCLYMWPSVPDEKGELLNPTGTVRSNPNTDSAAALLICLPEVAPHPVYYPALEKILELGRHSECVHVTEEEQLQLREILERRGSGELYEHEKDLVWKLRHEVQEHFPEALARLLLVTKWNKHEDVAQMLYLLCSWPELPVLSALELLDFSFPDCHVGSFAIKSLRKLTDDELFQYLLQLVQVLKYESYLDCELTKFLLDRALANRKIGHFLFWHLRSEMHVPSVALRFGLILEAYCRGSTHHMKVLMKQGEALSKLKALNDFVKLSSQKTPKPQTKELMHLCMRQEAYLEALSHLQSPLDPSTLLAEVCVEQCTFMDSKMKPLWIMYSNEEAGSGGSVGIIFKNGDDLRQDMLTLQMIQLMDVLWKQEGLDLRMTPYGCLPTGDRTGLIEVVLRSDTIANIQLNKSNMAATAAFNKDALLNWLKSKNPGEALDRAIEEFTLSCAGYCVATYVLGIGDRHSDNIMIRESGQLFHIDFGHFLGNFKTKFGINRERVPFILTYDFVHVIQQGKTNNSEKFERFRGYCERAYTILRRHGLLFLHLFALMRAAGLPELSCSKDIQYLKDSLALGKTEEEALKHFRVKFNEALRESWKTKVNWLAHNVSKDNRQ
Briefly: Inhibition of PI3Kdelta (unknown origin) measured by ADP-Glo assay. On the technique in general: In ADP-Glo the light output rises with the ADP produced.

The next data set concerns the target Histone deacetylase 1 (Homo sapiens, UniProt Q13547).
A further data set concerns KM12. Briefly: Antiproliferative activity against human KM12 cells incubated for 72 hrs by CCK-8 assay. It is filed as functional, cell-based. The note with it: KM12, 72 h. For orientation: Formazan colour is commonly taken as a measure of viable cells.
The subject of the next data set is SU-DHL-6. Description: Antiproliferative activity against human SU-DHL-6 cells incubated for 72 hrs by CCK-8 assay. It is filed as functional, cell-based. The note with it: SU-DHL-6, 72 h.
The subject of the next data set is T47D. Description: Antiproliferative activity against human T47D cells incubated for 72 hrs by CCK-8 assay. It is filed as functional, cell-based.
Data set [3] can be described thus: Cytotoxicity against HUVEC cells incubated for 72 hrs by CCK-8 assay. The note with it: human.
A further data set concerns HCT-116. Briefly: Antiproliferative activity against human HCT-116 cells incubated for 72 hrs by CCK-8 assay. It is filed as functional, cell-based. The note with it: HCT-116, 72 h.

Histone deacetylase 1, sequence (Q13547 whole entry): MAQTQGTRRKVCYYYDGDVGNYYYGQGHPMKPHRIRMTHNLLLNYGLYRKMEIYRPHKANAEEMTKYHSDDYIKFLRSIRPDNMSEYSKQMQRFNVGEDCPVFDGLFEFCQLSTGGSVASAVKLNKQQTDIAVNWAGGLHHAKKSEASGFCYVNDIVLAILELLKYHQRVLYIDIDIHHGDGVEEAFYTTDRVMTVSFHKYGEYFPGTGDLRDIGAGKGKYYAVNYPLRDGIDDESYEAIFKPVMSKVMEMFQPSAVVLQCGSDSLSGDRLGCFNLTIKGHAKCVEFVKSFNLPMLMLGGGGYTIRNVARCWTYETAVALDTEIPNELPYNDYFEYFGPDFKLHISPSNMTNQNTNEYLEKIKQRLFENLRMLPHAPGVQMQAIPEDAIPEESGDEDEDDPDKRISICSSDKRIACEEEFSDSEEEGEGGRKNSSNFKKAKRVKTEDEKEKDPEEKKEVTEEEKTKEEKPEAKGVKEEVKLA
Description for Histone deacetylase 1: Inhibition of HDAC1 (unknown origin) measured by fluorescence based assay

By IC50 is commonly meant the concentration that gives 50% inhibition. As to `CN(Cc1ccc(C(=O)NO)cc1)C(=O)O[C@@H]1C[C@@H](c2nc3cccc(Cl)c3c(=O)n2C)N(c2nc(N)nc(N)c2C#N)C1`, the IC50 in data set [1] turned out to be 11 nM; in data set [2] it was 42 nM; on Histone deacetylase 1, 260 nM.

Take `N#Cc1c(N)nc(N)nc1N1C[C@H](OC(=O)NCc2ccc(C(=O)NO)cc2)C[C@H]1c1nc2cccc(Cl)c2c(=O)n1-c1ccccc1`: the IC50 in data set [1] was found to be 87 nM; in data set [2], 1.6 nM; against Histone deacetylase 1, 271 nM.

In the case of `Cn1c([C@@H]2C[C@@H](OC(=O)NCCc3ccc(C(=O)NO)cc3)CN2c2nc(N)nc(N)c2C#N)nc2cccc(Cl)c2c1=O`, the IC50 in data set [1] was found to be 36 nM; in data set [2], 22 nM; against Histone deacetylase 1, 288 nM.

In the case of `CC[C@H](Nc1ncnc2[nH]cnc12)c1nc2cccc(F)c2c(=O)n1CCCCCC(=O)NO`, the IC50 in data set [1] stood at 121 nM; in data set [2] it was 36 nM; against Histone deacetylase 1 it was 85 nM.

Regarding `CC[C@H](Nc1ncnc2[nH]cnc12)c1nc2cccc(F)c2c(=O)n1-c1ccccc1` [IDELALISIB], the IC50 in the data set with KM12 came to 960 nM; in the data set with SU-DHL-6, 53 nM; with T47D it was 510 nM; in the data set with HCT-116 it was 2960 nM. In addition, the IC50 at 72 h in data set [3] was 38200 nM.

As for `C[C@H](Nc1nc(N)nc(N)c1C#N)c1nc2cccc(Cl)c2c(=O)n1Cc1ccc(C(=O)NO)s1`, the results for the IC50 (in data set [1]; at Histone deacetylase 1) were 66 nM and 214 nM, respectively.

Take `O=C(NO)c1ccc(Cn2c([C@@H]3CC4(CC4)CN3c3ncnc4[nH]cnc34)nc3cccc(F)c3c2=O)cc1`: the IC50 in data set [1] was 28 nM; in data set [2] it was 136 nM; on Histone deacetylase 1, 360 nM.

Turning to `CC[C@H](Nc1nc(N)nc(N)c1C#N)c1nc2cccc(Cl)c2c(=O)n1Cc1ccc(C(=O)NO)s1`, the half-maximal inhibitory concentration (IC50) in data set [1] worked out at 45 nM; on Histone deacetylase 1 it was 198 nM.

For `Cn1c([C@@H]2C[C@@H](OCc3ccc(C(=O)NO)s3)CN2c2nc(N)nc(N)c2C#N)nc2cccc(Cl)c2c1=O`, the IC50 in data set [1] was determined as 13 nM; in data set [2], 42 nM; against Histone deacetylase 1, 88 nM.

On to `N#Cc1c(N)nc(N)nc1N1C[C@H](OC(=O)NCc2ccc(C(=O)NO)cc2)C[C@H]1c1nc2cccc(F)c2c(=O)n1-c1ccccc1`, for which half-maximal inhibition in data set [2] (IC50) was put at 24 nM.

In turn, `CN1CCc2c(c3ccccc3n2Cc2ccc(C(=O)NO)cc2)C1` [TUBASTATIN A] came in with an IC50 at 72 h in data set [3] of […].

As to `Cn1c([C@@H]2C[C@@H](OC(=O)NCc3ccc(C(=O)NO)cc3)CN2c2nc(N)nc(N)c2C#N)nc2cccc(Cl)c2c1=O`, the IC50 came out at 27 nM in data set [1], 18 nM in data set [2] and 102 nM against Histone deacetylase 1.

`N#Cc1c(N)nc(N)nc1N1CC2(CC2)C[C@H]1c1nc2cccc(Cl)c2c(=O)n1Cc1ccc(C(=O)NO)cc1`: the results for the IC50 in data set [1] and in data set [2] were 331 nM and 6.1 nM, respectively.

Consider `Cn1c([C@@H]2C[C@@H](OC(=O)NCc3ccc(C(=O)NO)s3)CN2c2nc(N)nc(N)c2C#N)nc2cccc(Cl)c2c1=O`, for which the IC50 in data set [1] was 43 nM; in data set [2] it was 16 nM; against Histone deacetylase 1, 182 nM.

Turning to `N#Cc1c(N)nc(N)nc1N1CC2(CC2)C[C@H]1c1nc2cccc(Cl)c2c(=O)n1Cc1cc(C(=O)NO)no1`, the IC50 came to 604 nM in data set [1] and 6.9 nM in data set [2].

Take `N#Cc1c(N)nc(N)nc1N1C[C@@H](OC(=O)NCc2ccc(C(=O)NO)cc2)C[C@H]1c1nc2cccc(Cl)c2c(=O)n1-c1ccccc1`: the results for the IC50 in data set [1] and in data set [2] were 168 nM and 6.8 nM, respectively.

Consider `N#Cc1c(N)nc(N)nc1N1CCC[C@H]1c1nc(NCc2ccc(C(=O)NO)cc2)c2c(Cl)cccc2n1`, for which, in data set [1], the IC50 stood at 267 nM.

Take `N#Cc1c(N)nc(N)nc1N1CC2(CC2)C[C@H]1c1nc2cccc(F)c2c(=O)n1Cc1ccc(C(=O)NO)s1`: the IC50 was determined as 32 nM in data set [1], 20 nM in data set [2] and 82 nM on Histone deacetylase 1.

Take `Cn1c([C@@H]2C[C@@H](OCc3ccc(C(=O)NO)cc3)CN2c2nc(N)nc(N)c2C#N)nc2cccc(Cl)c2c1=O`: the IC50 came to 13 nM in data set [1], 75 nM in data set [2] and 72 nM against Histone deacetylase 1.

Regarding `N#Cc1c(N)nc(N)nc1N1CC2(CC2)C[C@H]1c1nc(NCc2ccc(C(=O)NO)cc2)c2c(Cl)cccc2n1`, in data set [1], the IC50 came to 398 nM.

With `CC[C@H](Nc1ncnc2[nH]cnc12)c1nc2cccc(F)c2c(=O)n1Cc1ccc(C(=O)NO)cc1`, the IC50 in data set [1] worked out at 45 nM; in data set [2], 99 nM; on Histone deacetylase 1, 244 nM.

Consider `N#Cc1c(N)nc(N)nc1N1CCC[C@H]1c1nc2cccc(Cl)c2c(=O)n1Cc1ccc(C(=O)NO)s1`, for which the results for the IC50 (in data set [1]; on Histone deacetylase 1) were 67 nM and 111 nM, respectively.

Compound `N#Cc1c(N)nc(N)nc1N1CCC[C@H]1c1nc2cccc(Cl)c2c(=O)n1Cc1ccc(C(=O)NO)cc1` displayed a half-inhibitory concentration (IC50) in data set [1] of 280 nM.

As for `O=C(CCCCCCNC(=O)c1cnc(N(c2ccccc2)c2ccccc2)nc1)NO` [RICOLINOSTAT], the IC50 in the data set with KM12 was 2150 nM; in the data set with SU-DHL-6 it was 830 nM; in the data set with T47D, 710 nM; in the data set on HCT-116, 1850 nM. The IC50 at 72 h in data set [3] came out at 13600 nM.

For `N#Cc1c(N)nc(N)nc1N1CC2(CC2)C[C@H]1c1nc(NCCc2ccc(C(=O)NO)cc2)c2c(Cl)cccc2n1`, the IC50 in data set [1] amounted to 219 nM.

In the case of `N#Cc1c(N)nc(N)nc1N1CC2(CC2)C[C@H]1c1nc2cccc(F)c2c(=O)n1Cc1ccc(C(=O)NO)cc1`, the 50% inhibitory concentration (IC50) in data set [1] came to 27 nM; in data set [2] it was 33 nM; on Histone deacetylase 1, 287 nM.
